From the NIST ThermoML archive (doi:10.1021/je401080p)
Numbers after ± are expanded uncertainties.

Assays:
[1] = Liquid, Rate of evaporation
[2] = Boiling temperature at pressure P; settings: 1.1 kPa, Liquid

## CCCCCCCCCC(=O)OCC(O)COC(=O)CCCCCCCCC [2-hydroxypropane-1,3-diyl bis(decanoate)]
[1]; 535.66 K
  vapor or sublimation pressure: 1 ± 0.1 kPa
[1]; 538.32 K
  vapor or sublimation pressure: 1.1 ± 0.2 kPa
[1]; 544.06 K
  vapor or sublimation pressure: 1.5 ± 0.2 kPa
[1]; 554.25 K
  vapor or sublimation pressure: 2.5 ± 0.2 kPa
[1]; 558.74 K
  vapor or sublimation pressure: 3.1 ± 0.3 kPa
[1]; 562.37 K
  vapor or sublimation pressure: 3.6 ± 0.4 kPa
[1]; 565.39 K
  vapor or sublimation pressure: 4.3 ± 0.5 kPa

## Cc1cc(O)cc2c1OC(C)(CCCC(C)CCCC(C)CCCC(C)C)CC2 (stereo not drawn) [ω-tocopherol]
[2]; DSC
  Boiling temperature at pressure P: 279.5 ± 6.6 °C

## CCCCCCCC(=O)OCC(O)CO (stereo not drawn) [2,3-dihydroxypropyl octanoate]
[1]; 462.66 K
  vapor or sublimation pressure: 1.1 ± 0.1 kPa
[1]; 468.91 K
  vapor or sublimation pressure: 1.5 ± 0.2 kPa
[1]; 479.02 K
  vapor or sublimation pressure: 2.5 ± 0.2 kPa
[1]; 484.24 K
  vapor or sublimation pressure: 3.1 ± 0.4 kPa
[1]; 485.63 K
  vapor or sublimation pressure: 3.6 ± 0.3 kPa
[1]; 490.19 K
  vapor or sublimation pressure: 4.3 ± 0.4 kPa
[1]; 498.91 K
  vapor or sublimation pressure: 6.8 ± 0.6 kPa
[1]; 507.96 K
  vapor or sublimation pressure: 10.1 ± 0.9 kPa
[1]; 514.64 K
  vapor or sublimation pressure: 13.2 ± 1.2 kPa

## CCCCCCCCCC(=O)OCC(O)CO (stereo not drawn) [2,3-dihydroxypropyl decanoate]
[1]; 478.69 K
  vapor or sublimation pressure: 1.1 ± 0.2 kPa
[1]; 482.79 K
  vapor or sublimation pressure: 1.5 ± 0.2 kPa
[1]; 491.77 K
  vapor or sublimation pressure: 2.5 ± 0.3 kPa
[1]; 497.13 K
  vapor or sublimation pressure: 3.1 ± 0.6 kPa
[1]; 498.31 K
  vapor or sublimation pressure: 3.6 ± 0.4 kPa
[1]; 501.31 K
  vapor or sublimation pressure: 4.3 ± 0.4 kPa
[1]; 511.21 K
  vapor or sublimation pressure: 6.8 ± 0.7 kPa
[1]; 519.1 K
  vapor or sublimation pressure: 10.1 ± 1 kPa
[1]; 524.41 K
  vapor or sublimation pressure: 13.2 ± 1.2 kPa

## Cc1c(C)c2c(c(C)c1O)CC[C@@](C)(CCC[C@H](C)CCC[C@H](C)CCCC(C)C)O2 [(+)-α-tocopherol]
[2]; Rate of evaporation
  Boiling temperature at pressure P: 276.11 ± 8.4 °C

## CCCCCCCC(=O)OCC(O)COC(=O)CCCCCCC [glycerol 1,3-dicaprylate]
[1]; 511.93 K
  vapor or sublimation pressure: 1.1 ± 0.2 kPa
[1]; 517.23 K
  vapor or sublimation pressure: 1.5 ± 0.2 kPa
[1]; 529.42 K
  vapor or sublimation pressure: 2.5 ± 0.2 kPa
[1]; 533.36 K
  vapor or sublimation pressure: 3.1 ± 0.3 kPa
[1]; 538.14 K
  vapor or sublimation pressure: 3.6 ± 0.3 kPa
[1]; 541.18 K
  vapor or sublimation pressure: 4.3 ± 0.4 kPa
[1]; 552.59 K
  vapor or sublimation pressure: 6.8 ± 0.5 kPa
[1]; 560.35 K
  vapor or sublimation pressure: 10.1 ± 0.9 kPa
[1]; 567.73 K
  vapor or sublimation pressure: 13.2 ± 1.2 kPa

## Cc1c(O)cc2c(c1C)O[C@](C)(CCC[C@H](C)CCC[C@H](C)CCCC(C)C)CC2 [(R,R,R)-γ-tocopherol]
[2]; DSC
  Boiling temperature at pressure P: 274.70 ± 4.7 °C

## Cc1cc(O)c(C)c2c1O[C@](C)(CCC[C@H](C)CCC[C@H](C)CCCC(C)C)CC2 [(R,R,R)-β-tocopherol]
[2]; DSC
  Boiling temperature at pressure P: 279.58 ± 2.9 °C
